Source: PMC3040260 (Biochemistry, 2011)
Where “and” joins values, the source holds several entries; their conditions need not be identical. Equal values may be shown once.

Key:
PaMTIP [1] = target: T1, PaMTIP (Pseudomonas aeruginosa, UniProt Q9HZK1); type: biochemical
PaMTIP [2] = target: T1, PaMTIP; assay: PaMTIP inhibition assay; type: biochemical
[3] = phosphorolysis, 25 °C, 100 mM Hepes pH 7.4, 100 mM phosphate
[4] = initial phase, 1 nM PaMTIP, 2 mM MTI, 25 °C, pH 7.4
[5] = second binding phase after slow-onset, 1 nM PaMTIP, 2 mM MTI, 25 °C, pH 7.4

T1 sequence (Q9HZK1 whole entry): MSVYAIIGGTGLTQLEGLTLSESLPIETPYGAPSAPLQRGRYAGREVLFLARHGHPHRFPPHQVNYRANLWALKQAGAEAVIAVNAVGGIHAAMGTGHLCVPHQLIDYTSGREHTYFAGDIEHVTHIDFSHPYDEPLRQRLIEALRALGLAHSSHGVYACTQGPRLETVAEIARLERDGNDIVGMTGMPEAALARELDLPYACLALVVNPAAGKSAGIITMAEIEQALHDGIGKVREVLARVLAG

Row | Molecule | kcat (PaMTIP [1]; [3]) | Ki (PaMTIP [2]; [4]) | Ki (PaMTIP [2]; [5]) | other results
1 | 5'-methylthioadenosine [MTA] | < 10^−4 s^−1 |  |  | Ki (PaMTIP [2]; competitive inhibitor of MTI, 200 µM MTI): 70000 ± 20000 nM
2 | 5'-methylthioinosine [MTI] | 4.8 s⁻¹ and 4.8 ± 0.2 s⁻¹ |  |  | slow hydrolysis rate (PaMTIP [1]; hydrolysis to hypoxanthine and 5-methylthioribose): 3.8e-05 s⁻¹; Km (PaMTIP [1]; [3]): 2.6 ± 0.4 µM
3 | CSC[C@H]1CN(Cc2c[nH]c3c(=O)[nH]cnc23)C[C@@H]1O [MT-DADMe-ImmH, 5'-methylthio-DADMe-ImmH] |  | 0.8 ± 0.1 nM | 0.34 ± 0.02 nM | 
4 | CSC[C@H]1N[C@@H](c2c[nH]c3c(=O)[nH]cnc23)[C@H](O)[C@@H]1O [MT-ImmH, 5'-methylthio-ImmH] |  | 0.84 ± 0.05 nM | 0.076 ± 0.005 nM | fold tighter binding than MT-DADMe-ImmH (Ki*) (PaMTIP [2]; PaMTIP): 4 fold
5 | O=c1[nH]cnc2c([C@@H]3N[C@H](CSc4ccccc4)[C@@H](O)[C@H]3O)c[nH]c12 [PhT-ImmH, 5'-phenylthio-ImmH] |  | 0.66 ± 0.09 nM | 0.035 ± 0.003 nM | slow-onset inhibition (PaMTIP [2]; PaMTIP): induces slow-onset inhibition
6 | Nc1ncnc2c1ncn2[C@@H]1O[C@H](CO)[C@@H](O)[C@H]1O [adenosine] | 0.0549 s⁻¹ and 0.0549 ± 0.0005 s⁻¹ |  |  | fold decrease of kcat/Km in comparison with MTI (PaMTIP [1]; relative to MTI): 750 fold
7 | O=c1[nH]cnc2c1ncn2[C@@H]1O[C@H](CO)[C@@H](O)[C@H]1O [inosine] | 0.57 s⁻¹ and 0.57 ± 0.04 s⁻¹ |  |  | 
